Measurements published in US10160748B2 (AbbVie Inc., priority 2015, dated 2018).

Molecular target: TNFα trimer (Homo sapiens, UniProt P01375)
Assay: TNFα FP Competitive Binding Assay
Details: FP binding assay; 20 nM TNFα trimer, 1 nM OregonGreen488 probe; read-out: TNF IC50
Procedure: TNFα FP Competitive Binding Assay
• 1. Assay Buffer: Prepare 1× Assay Buffer (Water with 47 mM HEPES, 47 mM NaCl, 0.9 mM EDTA, 0.0071% Triton X-100) by adding 25 mL of 1 M HEPES, 5 mL of 5 M NaCl, 1 mL of 0.5 M EDTA, and 375 μL of a 10% Triton X-100 stock to a fresh 500 mL bottle of water. • 2. Assay Mixture: Prepare fresh Assay Mixture containing 20 nM TNFα trimer (60 nM protein) and 1 nM 2′,7′-difluoro-3′,6′-dihydroxy-N-(2-(2-(2-((4-(isoquinolin-8-yl)-3-(4-(isoquinolin-8-yl)phenethoxy)benzyl)oxy)ethoxy)ethoxy)ethyl)-3-oxo-3H-spiro[isobenzofuran-1,9′-xanthene]-5-carboxamide probe in 1× Assay Buffer. Compound Plate Preparation Manual 12-Point 1:3 Dilution Plates: (384 Well Polypropylene Plates)
Top concentration of compounds, 10 mM in DMSO, dispensed in rows A-O in columns 1 and 13. Compounds are serially diluted 1:3 with DMSO in columns 2-12 or 14-24 using a 16-channel Matrix pipettor. Plates stored at −20° C.
Discovery Preps 12-Point 1:3 Dilution Plates: (384 Well Assay Plates)
Top concentration, 5 mM in DMSO, of compounds placed in rows A-O in columns 1 and 13. Compounds are serially diluted 1:3 with DMSO in columns 2-12 or 14-24. Compound solutions are dispensed into replicate assay plates at 410 nL per well. Plates stored at 4° C.
TNFα FP Competitive Binding Assay Protocol
• 1. Compound plates warmed to rt. • 2. Fresh Assay Mixture is prepared. • 3. Assay Mixture (20 μL) is dispensed each well of 384 assay plates using a Thermo Multidrop Combi or 16-channel Matrix pipettor. If Manual 12-point 1:3 Dilution Plates are to be tested, Assay Mix is dispensed into empty plates. Discovery Preps 12-point 1:3 Dilution Plates already contain 410 nL compound solution in DMSO. • 4. For Manual 12-point 1:3 Dilution Plates, 0.7 μL is manually transferred using a 16-channel Matrix pipettor to replicate assay plates containing 20 μL Assay Mixture for a final top compound concentration of 338 μM (3.4% DMSO). • 5. For Discovery Preps 12-point 1:3 Dilution Plates, 20 μL Assay Mixture added the 410 nL compound solution already in the plates yields a final top compound concentration of 100 μM (2.0% DMSO). • 6. Background subtraction controls are wells P1-P8 containing only Assay Buffer. The low % inhibition controls are wells P9-P16 containing only Assay Mix. The high % inhibition are wells P17-P24 containing only 1 nM 2′,7′-difluoro-3′,6′-dihydroxy-N-(2-(2-(2-((4-(isoquinolin-8-yl)-3-(4-(isoquinolin-8-yl)phenethoxy)benzyl)oxy)ethoxy)ethoxy)ethyl)-3-oxo-3H-spiro[isobenzofuran-1,9′-xanthene]-5-carboxamide probe in 1× Assay Buffer. • 7. Plates are incubated at rt for 18-24 h in 37° C. incubator (CO2 is off). • 8. Prior to reading the assay, the plates are placed in a dark cabinet to equilibrate at rt for one hour. • 9. Background-subtracted fluorescence polarization (mP) is measured using a PerkinElmer Envision plate reader. • 10. Raw data is entered into Assay Explorer and dose-response curves are generated using a variable slope curve. Supplies, Materials, and Reagents

TNFα trimer, sequence (P01375 77-233 limits assumed): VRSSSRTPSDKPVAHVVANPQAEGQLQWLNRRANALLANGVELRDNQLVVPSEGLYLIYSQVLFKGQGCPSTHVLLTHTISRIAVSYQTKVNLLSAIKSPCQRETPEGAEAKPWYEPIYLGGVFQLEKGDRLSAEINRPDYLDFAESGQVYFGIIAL

Row | SMILES | IC50 [µM]
1 | Cn1c(=O)c2ccc(-c3cnc(C(C)(C)O)nc3)cc2n1Cc1cc([C@H]2CC[C@@H](C#N)C2)ccc1OC(F)F (racemic) [Example 96, rac-(R,3S)-3-(4-(Difluoromethoxy)-3-((6-(2-(2-hydroxypropan-2-yl)pyrimidin-5-yl)-2-methyl-3-oxo-2,3-dihydro-1H-indazol-1-yl)methyl)phenyl)cyclopentane-1-carbonitrile] | 1 to 10
2 | Cn1c(=O)c2ccc(-c3cnc(C(C)(C)O)nc3)cc2n1Cc1cc([C@H]2CC[C@@H](C#N)C2)ccc1OC(F)F (racemic) [Example 97] | < 1
3 | Cc1ccc(OC(F)F)c(Cn2c3cc(-c4cnn5c(C(C)O)cnc5c4)ccc3c(=O)n2C)c1 (racemic) [Example 106, 1-(2-(Difluoromethoxy)-5-methylbenzyl)-6-(3-(1-hydroxyethyl)imidazo[1,2-b]pyridazin-7-yl)-2-methyl-1H-indazol-3(2H)-one] | < 1
4 | Cn1c(=O)c2ccc(-c3cnc(C(C)(C)O)nc3)cc2n1Cc1cc([C@@H]2CCC[C@@H]2C#N)ccc1OC(F)F (relative stereo) [Example 112, 2-(4-(Difluoromethoxy)-3-((6-(2-(2-hydroxypropan-2-yl)pyrimidin-5-yl)-2-methyl-3-oxo-2,3-dihydro-1H-indazol-1-yl)methyl)phenyl)cyclopentanecarbonitrile] | 1 to 10
5 | Cn1c(=O)c2ccc(-c3cnc(N4CCN5C(=O)NC[C@@H]5C4)nc3)cc2n1Cc1ccccc1OC(F)F (single isomer, unassigned) [Example 6] | < 1
6 | Cn1c(=O)c2ccc(-c3cnc(N4CCN5C(=O)NC[C@H]5C4)nc3)cc2n1Cc1ccccc1OC(F)F (single isomer, unassigned) [Example 7] | < 1
7 | Cc1ccc(OC(F)F)c(Cn2c3cc(-c4cnc(N5CCN6C(=O)NCC6C5)nc4)ccc3c(=O)n2C)c1 (single isomer, unassigned) [Example 8] | < 1
8 | Cn1c(=O)c2ccc(-c3cnc(N[C@H]4CCNC(=O)C4)nc3)cc2n1Cc1cc(CO)ccc1OC(F)F (single isomer, unassigned) [Example 25] | < 1
9 | Cn1c(=O)c2ccc(-c3cnc(N[C@@H]4CCNC(=O)C4)nc3)cc2n1Cc1cc(CO)ccc1OC(F)F (single isomer, unassigned) [Example 26] | < 1
10 | CN1CC[C@H](Nc2ncc(-c3ccc4c(=O)n(C)n(Cc5cc(CO)ccc5OC(F)F)c4c3)cn2)CC1=O (single isomer, unassigned) [Example 27] | 1 to 10
11 | CN1CC[C@@H](Nc2ncc(-c3ccc4c(=O)n(C)n(Cc5cc(CO)ccc5OC(F)F)c4c3)cn2)CC1=O (single isomer, unassigned) [Example 28] | < 1
12 | CC(=O)N1CCN(c2ncc(-c3ccc4c(=O)n(C)n(Cc5cc(C)ccc5OC(F)F)c4c3)cn2)C[C@H]1C (single isomer, unassigned) [Example 54] | < 1
13 | CC(=O)N1CCN(c2ncc(-c3ccc4c(=O)n(C)n(Cc5cc(C)ccc5OC(F)F)c4c3)cn2)C[C@@H]1C (single isomer, unassigned) [Example 55] | < 1
14 | C[C@@H]1CN(c2ncc(-c3ccc4c(=O)n(C)n([C@@H](C)c5c(F)cccc5F)c4c3)cn2)CCN1C(=O)CO (single isomer, unassigned) [Example 58] | < 1
15 | C[C@@H]1CN(c2ncc(-c3ccc4c(=O)n(C)n([C@@H](C)c5ccccc5F)c4c3)cn2)CCN1C(=O)CO (single isomer, unassigned) [Example 85] | < 1
16 | C[C@@H]1CN(c2ncc(-c3ccc4c(=O)n(C)n([C@H](C)c5ccccc5F)c4c3)cn2)CCN1C(=O)CO (single isomer, unassigned) [Example 86] | 1 to 10
17 | Cc1ccc(OC(F)F)c(Cn2c3cc(-c4cnn5c([C@@H](C)O)cnc5c4)ccc3c(=O)n2C)c1 (single isomer, unassigned) [Example 107] | < 1
18 | Cc1ccc(OC(F)F)c(Cn2c3cc(-c4cnn5c([C@H](C)O)cnc5c4)ccc3c(=O)n2C)c1 (single isomer, unassigned) [Example 108] | 1 to 10
19 | Cc1cccc([C@H](C)n2c3cc(-c4cnc(N5CCN(C(=O)CO)[C@H](C)C5)nc4)ccc3c(=O)n2C)c1 (single isomer, unassigned) [Example 117] | < 1
20 | Cc1cccc([C@@H](C)n2c3cc(-c4cnc(N5CCN(C(=O)CO)[C@H](C)C5)nc4)ccc3c(=O)n2C)c1 (single isomer, unassigned) [Example 118] | 1 to 10
21 | Cn1c(=O)c2ccc(-c3cnc(N4CCOCC4)nc3)cc2n1Cc1c(F)cccc1OC(F)F [Example 1, 1-(2-(Difluoromethoxy)-6-fluorobenzyl)-2-methyl-6-(2-morpholinopyrimidin-5-yl)-1H-indazol-3(2H)-one] | < 1

Second part, the compound after the results:

Row | IC50 [µM] | SMILES
22 | 1 to 10 | Cc1ccc(OC(F)F)c(Cn2c3cc(-c4cnc(N5C[C@@H]6CNC(=O)[C@@H]6C5)nc4)ccc3c(=O)n2C)c1 (racemic) [Example 20.3]
23 | 1 to 10 | Cn1c(=O)c2ccc(-c3cnc(N4CCOCC4)nc3)cc2n1Cc1cccc(F)c1 [Example 1.1]
24 | 1 to 10 | Cn1c(=O)c2ccc(-c3cnc(N4CCOCC4)nc3)cc2n1Cc1cccc(OC(F)F)c1 [Example 1.2]
25 | 1 to 10 | Cc1ccccc1Cn1c2cc(-c3cnc(N4CCOCC4)nc3)ccc2c(=O)n1C [Example 1.3]
26 | > 10 | Cn1c(=O)c2ccc(-c3cnc(N4CCOCC4)nc3)cc2n1CCc1ccccc1 [Example 1.4]
27 | 1 to 10 | CC(c1ccccc1OC(F)F)n1c2cc(-c3cnc(N4CCOCC4)nc3)ccc2c(=O)n1C (centres unmarked) [Example 1.5]
28 | 1 to 10 | Cn1c(=O)c2ccc(-c3cnc(N4CCOCC4)nc3)cc2n1Cc1cc(F)ccc1OC(F)F [Example 1.6]
29 | > 10 | Cn1c(=O)c2ccc(-c3cnc(N4CCOCC4)nc3)cc2n1C(=O)c1ccccc1OC(F)F [Example 1.7]
30 | > 10 | Cn1c(=O)c2ccc(-c3cnc(N4CCOCC4)nc3)cc2n1C(=O)c1ccccc1 [Example 1.8]
31 | 1 to 10 | Cc1cccc(Cn2c3cc(-c4cnc(N5CCOCC5)nc4)ccc3c(=O)n2C)c1 [Example 1.9]
32 | 1 to 10 | Cn1c(=O)c2ccc(-c3cnc(N4CCOCC4)nc3)cc2n1Cc1ccccc1 [Example 1.10]
33 | > 10 | Cn1c(=O)c2ccc(-c3cnc(N4CCOCC4)nc3)cc2n1Cc1ccc(F)cc1 [Example 1.11]
34 | 1 to 10 | Cn1c(=O)c2ccc(-c3cnc(N4CCOCC4)nc3)cc2n1Cc1ccccc1C#N [Example 1.12]
35 | > 10 | Cn1c(=O)c2ccc(-c3cnc(N4CCOCC4)nc3)cc2n1CCc1ccccc1F [Example 1.13]
36 | 1 to 10 | Cn1c(=O)c2ccc(-c3cnc(N4CCOCC4)nc3)cc2n1Cc1ncccc1Cl [Example 1.14]
37 | 1 to 10 | Cn1c(=O)c2ccc(-c3cnc(N4CCOCC4)nc3)cc2n1Cc1ccccc1F [Example 1.15]
38 | 1 to 10 | Cn1c(=O)c2ccc(-c3cnc(N4CCOCC4)nc3)cc2n1Cc1nc(Cl)ccc1Cl [Example 1.16]
39 | > 10 | Cn1c(=O)c2ccc(-c3cnc(N4CCOCC4)nc3)cc2n1Cc1cnccc1Cl [Example 1.17]
40 | < 1 | Cc1ccc(OC(F)F)c(Cn2c3cc(-c4cnc(N5CCOCC5)nc4)ccc3c(=O)n2C)c1 [Example 1.18]
41 | < 1 | Cc1ccc(C)c(Cn2c3cc(-c4cnc(N5CCOCC5)nc4)ccc3c(=O)n2C)c1 [Example 1.19]
